Columns and labels:
[1] = tested on: HeLa; test: Cytotoxicity against human HeLa cells; assay type: functional, cell-based
[2] = tested on: SK-OV-3; test: Cell cycle arrest in human SKOV3 cells assessed as accumulation at G2/M phase at 5 nM by flow cytometry (reference value: 14%); assay type: functional
[3] = tested on: HUVEC; test: Antivascular activity against HUVEC cells assessed as cell growth inhibition after 24 hrs by xCELLigence assay; assay type: functional, cell-based; details: Homo sapiens
[4] = tested on: HUVEC; test: Antivascular activity against HUVEC cells assessed as cell growth inhibition after 48 hrs by xCELLigence assay; assay type: functional, cell-based; details: Homo sapiens
[5] = tested on: SK-OV-3; test: Cytotoxicity against human SKOV3 cells after 48 hrs by MTS assay; assay type: functional, cell-based; details: SK-OV-3, 48 h
[6] = tested on: SK-OV-3; test: Cell cycle arrest in human SKOV3 cells assessed as accumulation at G1 phase at 5 nM by flow cytometry (reference value: 54%); assay type: functional
[7] = tested on: SK-OV-3; test: Cell cycle arrest in human SKOV3 cells assessed as accumulation at S phase at 5 nM by flow cytometry (reference value: 31%); assay type: functional
[8] = tested on: HUVEC; test: Antivascular activity against HUVEC cells assessed as cell growth inhibition measured every 30 mins for 21 hrs by xCELLigence assay; assay type: functional, cell-based; details: Homo sapiens
[9] = organism: Bos taurus; test: Inhibition of bovine tubulin polymerization at 5 uM measured every 30 secs for 60 mins by spectrophotometry relative to control

Structure (SMILES): COc1cc(-c2nn[nH]c2-c2ccc(N)cc2)cc(OC)c1OC
- IC50 [1]: 5000 nM

Structure (SMILES): COc1ccc(/C=C\c2cc(Br)c(OC)c(Br)c2)cc1O
- Activity [2]: 54%

Structure (SMILES): COc1ccc(/C=C\c2cc(OC)c(OC)c(OC)c2)c(O)c1O [COMBRETASTATIN A-1]
- IC50 [3]: 2.6 nM
- IC50 [4]: 4.1 nM

Structure (SMILES): COc1ccc(/C=C\c2cc(I)c(OC)c(I)c2)cc1O
- Activity [2]: 84%

Structure (SMILES): COc1ccc(/C=C\c2cc(OC)c(OC)c(OC)c2)cc1O [COMBRETASTATIN A4]
- IC50 [5]: 1.7 nM
- Activity [6]: 40%
- Activity [7]: 23%
- Activity [2]: 31%
- IC50 [8]: 2.2 nM
- inhibition [9]: 57.6%
